Experimental data taken from ChEMBL document CHEMBL5230122, “Natural products and other inhibitors of F1FO ATP synthase” (Eur J Med Chem, 2020).

Key:
HCT-116 = test: Antiproliferative activity against human HCT-116 cells assessed as reduction in cell viability incubated for 72 hrs by MTT assay; format: functional, cell-based; settings: HCT-116, 72 h
N2a = test: Antiproliferative activity against mouse Neuro2a cells assessed as reduction in cell viability incubated for 48 hrs by MTT assay; format: functional, cell-based
[1] = Antiproliferative activity against human U87G cells assessed as reduction in cell viability incubated for 72 hrs by MTT assay; format: functional, cell-based
[2] = Inhibition of yeast mitochondrial F0F1-ATPase assessed as inhibition constant measured after 20 mins in presence of NADH and ATP by microplate reader analysis; format: mitochondria, Saccharomyces cerevisiae, Mitochondria
GBM = test: Anticancer activity against human GBM cells carrying high-throughput GBM sphere assessed as reduction in cell viability incubated for 96 hrs by Cell-Titer-Glo assay; format: functional, cell-based
NCI-H460 = test: Antiproliferative activity against human NCI-H460 cells assessed as reduction in cell viability incubated for 48 hrs by MTT assay; format: functional, cell-based; settings: NCI-H460, 48 h
P388 = test: Anticancer activity against mouse P388 cells assessed as reduction in cell viability incubated for 96 hrs by MTT assay; format: functional, cell-based; settings: P388, 96 h
MCF7 = test: Antitumor activity against human MCF7 cells assessed as reduction in cell viability incubated for 24 hrs by MTT assay; format: functional, cell-based; settings: MCF7, 24 h
[3] = Cytotoxicity against mouse L929 cells assessed as reduction in cell viability; format: toxicity, cell-based
HL-60 = test: Anticancer activity against human HL-60 cells assessed inhibition of cell proliferation incubated for 48 hrs by MTT assay; format: functional, cell-based; settings: HL-60, 48 h
[4] = Inhibition of mouse liver mitochondrial ATP synthase by microplate immuno-capture ELISA assay; format: mitochondria, Mitochondria

With CO[C@H]1[C@H](O[C@@H]2C[C@@H]3C[C@H](OCCCC=O)[C@@]4(O)C[C@H](C[C@H](O)[C@@H]5C[C@H](C)[C@H](/C=C\C=C\[C@H](C)C[C@H](C2)O3)O5)OC4=O)O[C@@H](C)[C@H](O)[C@H]1O the IC50 (HCT-116) was 54 nM, the IC50 (N2a) was 84 nM and the IC50 [1] was 61 nM.

For COC[C@@H](C[C@H]1O[C@@](O)([C@@H]2OC(=O)/C(C)=C/C(C)=C/C(C)=C/[C@@H](C)[C@H](O[C@@H]3O[C@@H](C)[C@H](OC)[C@@H](O)[C@@H]3O)/C=C/C(C)=C/CC[C@H](O)[C@@H](OC)C[C@@H]2O)[C@H](C)[C@@H](O)[C@H]1C)O[C@H]1C[C@](C)(O)[C@@H](O[C@H]2C[C@@H](OC)[C@H](O)[C@@H](C)O2)[C@H](C)O1, the Ki [2] was 17000 nM.

CC(C)[C@@H]1CC[C@@H](C)C[C@H]1OC(=O)Cn1c(-c2cccc(C(F)(F)F)c2)[n+](C)c2ccccc21 showed an IC50 (GBM) of 470 nM.

Work on CO[C@H]1[C@H](O[C@@H]2C[C@@H]3C/C=C/C(=O)O[C@H](CO)C[C@H](O)[C@@H]4C[C@H](C)[C@H](/C=C\C=C\[C@H](C)C[C@H](C2)O3)O4)O[C@@H](C)[C@H](O)[C@H]1O yielded an IC50 (NCI-H460) of 12 nM and an IC50 (N2a) of 44 nM.

CC/C(C)=C(\NC(=O)[C@@H](NC(=O)CC(=O)[C@@H](C)CC(C)C)[C@](C)(O)CC)C(=O)NCC(=O)N/C(C(=O)N[C@@H](C(=O)N[C@@H](C(=O)N[C@@H](C(=O)N[C@H](C(=O)N/C(C(=O)N[C@H](C)C(=O)N[C@@H](C(=O)N[C@H](C(=O)NC(C(=O)N[C@H](CN(C)C)C(C)C)=C(C)C)C(C)C)C(C)C)=C(\C)CC)C(C)(C)O)C(C)(C)O)[C@@H](C)CC)C(C)C)=C(\C)CC gave an IC50 (P388) of 0.88 nM.

Oc1ccc(/C=C/c2cc(O)cc(O)c2)cc1 [RESVERATROL] gave an IC50 (MCF7) of 80000 nM.

In the case of CCC[C@H](O)[C@@H](C)C(=O)NC/C=C\C[C@@H](C)[C@@H](O)[C@H](C)[C@@H](O)C/C=C\C[C@H](C)[C@H]1Cc2cc(OC)cc(O)c2C(=O)O1, the IC50 [3] is reported as > 1 µg/mL.

For CCc1n(CC(=O)O[C@@H]2C[C@H](C)CC[C@H]2C(C)C)c2ccccc2[n+]1C, the IC50 (GBM) was 150 nM.

With O=C(Oc1cc(/C=C/c2ccc(O)cc2)cc(OC(=O)c2ccco2)c1)c1ccco1 the IC50 (MCF7) was 42700 nM.

In the case of Ic1ccc(-c2c3ccc(=[N+]4CCCCC4)cc-3oc3cc(N4CCCCC4)ccc23)cc1, the IC50 (HL-60) is reported as 100 nM and the IC50 [4] is reported as 3900 nM.
